Test results reported in paper PMC7180948, “New Insights into 4-Anilinoquinazolines as Inhibitors of Cardiac Troponin I–Interacting Kinase (TNNi3K)” (Molecules, 2020).

What was measured:
Assay in all cases: biochemical
Set-up in all cases: KINOMEscan competition binding panel (Eurofins DiscoverX), single concentration, percent inhibition
Conditions in all cases: read-out: 15 at 1 µM % inhibition
ROCK2 = ROCK2 (Homo sapiens, UniProt O75116)
In short: (§1)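 Binding was profiled in the KINOMEscan panel of over 400 human kinases, with each compound tested at a single concentration of 1 µM to map selectivity.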

INSR = INSR (Homo sapiens, UniProt P06213)
In short: as §1

MTOR = MTOR (Homo sapiens, UniProt P42345)
In short: as §1

ACVRL1 = ACVRL1 (Homo sapiens, UniProt P37023)
In short: as §1

TTK = TTK (Homo sapiens, UniProt P33981)
In short: as §1

RIPK1 = RIPK1 (Homo sapiens, UniProt Q13546)
In short: as §1

[1] = target: T1, TYK2(JH2domain-pseudokinase) (Homo sapiens, UniProt P29597)
T1 construct: JH2domain-pseudokinase
In short: as §1

DDR2 = DDR2 (Homo sapiens, UniProt Q16832)
In short: as §1

PCTK1 = target: T2, PCTK1 (Homo sapiens, UniProt Q00536)
T2 construct: gene CDK16
In short: as §1

PRKCQ = PRKCQ (Homo sapiens, UniProt Q04759)
In short: as §1

KIT(V559D) = KIT(V559D) (Homo sapiens, UniProt P10721, V559D)
In short: as §1

ASK2 = target: T3, ASK2 (Homo sapiens, UniProt O95382)
T3 construct: gene MAP3K6
In short: as §1

PIM1 = PIM1 (Homo sapiens, UniProt P11309)
In short: as §1

FLT3(N841I) = FLT3(N841I) (Homo sapiens, UniProt P36888, N841I)
In short: as §1

DAPK2 = DAPK2 (Homo sapiens, UniProt Q9UIK4)
In short: as §1

CSNK2A1 = CSNK2A1 (Homo sapiens, UniProt P68400)
In short: as §1

PCTK2 = target: T4, PCTK2 (Homo sapiens, UniProt Q00537)
T4 construct: gene CDK17
In short: as §1

WNK2 = WNK2 (Homo sapiens, UniProt Q9Y3S1)
In short: as §1

LYN = LYN (Homo sapiens, UniProt P07948)
In short: as §1

ALK(L1196M) = ALK(L1196M) (Homo sapiens, UniProt Q9UM73, L1196M)
In short: as §1

EGFR(E746-A750del) = EGFR(E746-A750del) (Homo sapiens, UniProt P00533, DEL746-750)
In short: as §1

FGFR3 = FGFR3 (Homo sapiens, UniProt P22607)
In short: as §1

GRK3 = GRK3 (Homo sapiens, UniProt P35626)
In short: as §1

PLK3 = PLK3 (Homo sapiens, UniProt Q9H4B4)
In short: as §1

Sequence of PIM1 (P11309 whole entry): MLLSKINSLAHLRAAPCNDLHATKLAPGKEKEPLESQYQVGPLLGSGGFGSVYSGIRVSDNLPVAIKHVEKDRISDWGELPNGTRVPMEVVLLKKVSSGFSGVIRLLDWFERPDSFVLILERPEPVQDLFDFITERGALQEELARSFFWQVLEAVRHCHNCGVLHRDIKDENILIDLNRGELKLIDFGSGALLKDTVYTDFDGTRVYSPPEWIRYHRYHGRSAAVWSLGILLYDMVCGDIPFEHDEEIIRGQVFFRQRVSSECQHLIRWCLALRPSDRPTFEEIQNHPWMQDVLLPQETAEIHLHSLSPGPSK
Sequence of KIT(V559D) (P10721 whole entry V559D): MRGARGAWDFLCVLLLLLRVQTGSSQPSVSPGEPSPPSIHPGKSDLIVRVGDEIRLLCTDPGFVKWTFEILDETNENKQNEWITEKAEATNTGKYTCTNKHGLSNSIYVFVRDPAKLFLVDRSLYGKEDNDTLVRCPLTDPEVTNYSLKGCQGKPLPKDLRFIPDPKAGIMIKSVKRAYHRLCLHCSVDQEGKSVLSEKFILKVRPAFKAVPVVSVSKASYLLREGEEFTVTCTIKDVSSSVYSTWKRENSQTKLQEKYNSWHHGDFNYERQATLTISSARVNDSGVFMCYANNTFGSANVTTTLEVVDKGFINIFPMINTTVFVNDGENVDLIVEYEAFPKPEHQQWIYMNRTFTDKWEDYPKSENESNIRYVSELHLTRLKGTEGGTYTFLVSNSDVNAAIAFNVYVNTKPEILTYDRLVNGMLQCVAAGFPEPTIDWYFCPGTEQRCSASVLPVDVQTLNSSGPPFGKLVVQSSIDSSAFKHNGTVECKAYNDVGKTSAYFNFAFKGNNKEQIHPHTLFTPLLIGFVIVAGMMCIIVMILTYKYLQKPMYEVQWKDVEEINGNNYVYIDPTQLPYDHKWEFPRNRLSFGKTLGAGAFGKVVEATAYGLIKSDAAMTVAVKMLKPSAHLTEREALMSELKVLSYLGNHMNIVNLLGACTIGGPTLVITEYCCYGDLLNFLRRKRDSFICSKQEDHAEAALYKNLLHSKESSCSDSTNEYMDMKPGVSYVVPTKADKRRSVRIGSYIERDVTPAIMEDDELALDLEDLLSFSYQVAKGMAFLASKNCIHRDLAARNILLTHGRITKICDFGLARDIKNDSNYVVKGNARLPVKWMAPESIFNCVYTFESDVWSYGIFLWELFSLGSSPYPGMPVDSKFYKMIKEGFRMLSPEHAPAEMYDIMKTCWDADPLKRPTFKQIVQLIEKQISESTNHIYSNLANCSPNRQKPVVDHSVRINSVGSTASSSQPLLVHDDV
Sequence of EGFR(E746-A750del) (P00533 with tags, fused parts or gaps DEL746-750): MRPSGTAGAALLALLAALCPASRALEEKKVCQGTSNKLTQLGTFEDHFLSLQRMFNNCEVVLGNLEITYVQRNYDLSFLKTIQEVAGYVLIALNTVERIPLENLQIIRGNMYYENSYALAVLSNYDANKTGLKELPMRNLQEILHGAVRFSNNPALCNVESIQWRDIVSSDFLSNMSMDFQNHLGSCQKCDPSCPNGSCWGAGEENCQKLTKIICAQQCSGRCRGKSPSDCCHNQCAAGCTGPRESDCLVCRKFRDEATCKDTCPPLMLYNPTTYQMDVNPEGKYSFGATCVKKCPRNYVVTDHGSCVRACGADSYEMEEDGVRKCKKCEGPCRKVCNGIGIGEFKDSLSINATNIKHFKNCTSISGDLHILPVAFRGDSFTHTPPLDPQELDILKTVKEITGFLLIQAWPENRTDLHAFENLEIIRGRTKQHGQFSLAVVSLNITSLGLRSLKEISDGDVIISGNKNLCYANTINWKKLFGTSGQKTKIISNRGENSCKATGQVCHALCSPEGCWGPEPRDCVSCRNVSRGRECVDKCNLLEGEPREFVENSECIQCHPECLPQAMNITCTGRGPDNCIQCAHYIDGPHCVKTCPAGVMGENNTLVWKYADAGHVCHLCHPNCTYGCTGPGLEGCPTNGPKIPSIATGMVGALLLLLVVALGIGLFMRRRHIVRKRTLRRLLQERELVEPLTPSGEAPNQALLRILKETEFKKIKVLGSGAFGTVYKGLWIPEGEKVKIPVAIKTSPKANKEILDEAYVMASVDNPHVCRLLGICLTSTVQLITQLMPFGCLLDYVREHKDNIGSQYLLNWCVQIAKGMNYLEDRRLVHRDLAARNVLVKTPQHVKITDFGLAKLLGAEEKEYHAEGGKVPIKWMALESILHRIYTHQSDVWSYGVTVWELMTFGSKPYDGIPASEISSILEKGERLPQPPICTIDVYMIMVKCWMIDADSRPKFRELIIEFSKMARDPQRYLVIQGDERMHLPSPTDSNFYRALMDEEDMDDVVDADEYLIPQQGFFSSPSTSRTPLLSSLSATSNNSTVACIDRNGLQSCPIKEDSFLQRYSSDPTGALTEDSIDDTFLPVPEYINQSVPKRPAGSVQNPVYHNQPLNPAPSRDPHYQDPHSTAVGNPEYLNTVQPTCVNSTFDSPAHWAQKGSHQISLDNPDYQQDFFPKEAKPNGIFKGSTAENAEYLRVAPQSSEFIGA
Sequence of FGFR3 (P22607 whole entry): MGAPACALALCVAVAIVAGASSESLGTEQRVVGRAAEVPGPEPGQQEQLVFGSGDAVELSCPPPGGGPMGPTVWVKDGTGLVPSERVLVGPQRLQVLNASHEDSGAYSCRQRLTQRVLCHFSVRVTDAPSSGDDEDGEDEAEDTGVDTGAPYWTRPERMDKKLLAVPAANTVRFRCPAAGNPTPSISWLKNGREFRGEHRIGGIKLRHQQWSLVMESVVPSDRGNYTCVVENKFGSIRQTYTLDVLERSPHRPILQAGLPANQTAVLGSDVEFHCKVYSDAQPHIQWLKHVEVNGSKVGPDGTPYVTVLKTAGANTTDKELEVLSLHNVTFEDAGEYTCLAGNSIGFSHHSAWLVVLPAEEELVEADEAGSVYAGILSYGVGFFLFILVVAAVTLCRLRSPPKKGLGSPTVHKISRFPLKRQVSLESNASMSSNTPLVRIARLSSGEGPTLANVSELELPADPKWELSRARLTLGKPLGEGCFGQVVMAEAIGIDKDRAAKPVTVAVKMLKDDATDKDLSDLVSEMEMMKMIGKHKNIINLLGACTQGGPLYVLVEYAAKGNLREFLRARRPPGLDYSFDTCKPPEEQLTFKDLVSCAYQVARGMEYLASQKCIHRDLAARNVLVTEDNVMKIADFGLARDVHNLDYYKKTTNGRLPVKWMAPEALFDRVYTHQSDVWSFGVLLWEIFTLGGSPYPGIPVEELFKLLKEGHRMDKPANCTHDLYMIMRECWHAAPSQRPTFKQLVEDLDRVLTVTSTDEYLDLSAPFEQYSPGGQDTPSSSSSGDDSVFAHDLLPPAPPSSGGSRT
Sequence of DDR2 (Q16832 whole entry): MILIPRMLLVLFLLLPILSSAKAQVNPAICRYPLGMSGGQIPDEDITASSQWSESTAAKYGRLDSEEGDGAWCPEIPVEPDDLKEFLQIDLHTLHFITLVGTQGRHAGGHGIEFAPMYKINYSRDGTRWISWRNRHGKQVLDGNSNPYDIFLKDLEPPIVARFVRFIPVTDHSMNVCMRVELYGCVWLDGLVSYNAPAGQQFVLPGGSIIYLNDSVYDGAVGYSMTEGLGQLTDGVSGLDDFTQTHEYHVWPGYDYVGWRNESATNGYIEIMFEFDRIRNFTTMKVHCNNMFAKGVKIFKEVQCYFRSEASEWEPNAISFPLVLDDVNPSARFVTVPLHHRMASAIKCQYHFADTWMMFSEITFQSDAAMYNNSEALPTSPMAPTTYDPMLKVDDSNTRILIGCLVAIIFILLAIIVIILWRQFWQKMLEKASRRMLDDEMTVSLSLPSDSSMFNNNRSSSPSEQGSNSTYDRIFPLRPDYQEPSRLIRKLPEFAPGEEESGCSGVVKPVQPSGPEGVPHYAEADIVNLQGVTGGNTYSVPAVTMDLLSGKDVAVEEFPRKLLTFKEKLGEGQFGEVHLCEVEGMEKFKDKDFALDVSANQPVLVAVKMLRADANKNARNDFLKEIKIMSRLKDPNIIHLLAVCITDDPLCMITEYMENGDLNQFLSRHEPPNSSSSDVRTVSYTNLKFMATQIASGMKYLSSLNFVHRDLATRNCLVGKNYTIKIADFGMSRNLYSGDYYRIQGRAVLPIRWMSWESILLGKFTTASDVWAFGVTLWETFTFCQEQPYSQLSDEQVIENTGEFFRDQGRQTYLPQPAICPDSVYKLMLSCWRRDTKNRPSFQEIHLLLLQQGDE
Sequence of RIPK1 (Q13546 whole entry): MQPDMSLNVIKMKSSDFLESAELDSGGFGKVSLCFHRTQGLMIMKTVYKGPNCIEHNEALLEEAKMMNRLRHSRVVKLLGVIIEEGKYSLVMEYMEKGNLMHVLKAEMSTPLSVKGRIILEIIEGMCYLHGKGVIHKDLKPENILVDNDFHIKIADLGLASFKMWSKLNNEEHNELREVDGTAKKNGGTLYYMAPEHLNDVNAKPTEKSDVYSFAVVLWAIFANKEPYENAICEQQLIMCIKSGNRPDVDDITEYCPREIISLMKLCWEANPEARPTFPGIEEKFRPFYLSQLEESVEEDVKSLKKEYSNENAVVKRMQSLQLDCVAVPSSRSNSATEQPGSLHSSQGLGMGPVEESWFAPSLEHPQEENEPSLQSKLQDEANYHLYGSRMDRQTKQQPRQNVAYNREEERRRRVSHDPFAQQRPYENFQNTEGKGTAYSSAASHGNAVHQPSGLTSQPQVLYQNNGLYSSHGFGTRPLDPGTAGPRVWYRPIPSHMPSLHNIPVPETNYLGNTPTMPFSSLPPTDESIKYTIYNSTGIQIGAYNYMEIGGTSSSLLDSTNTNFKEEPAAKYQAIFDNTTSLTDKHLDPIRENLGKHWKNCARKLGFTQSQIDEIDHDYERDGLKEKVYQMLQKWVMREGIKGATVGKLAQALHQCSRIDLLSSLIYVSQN

SMILES: CNS(=O)(=O)c1ccc(N(C)C)c(Nc2nc(C)nc3cc(OC)c(OC)cc23)c1 [compound 15, 3-((6,7-dimethoxy-2-methylquinazolin-4-yl)amino)-4-(dimethylamino)-N-methylbenzenesulfonamide]
- inhibition at 1 µM (ROCK2): 5%
- inhibition at 1 µM (INSR): 11%
- inhibition at 1 µM (MTOR): 0%
- inhibition at 1 µM (ACVRL1): 0%
- inhibition at 1 µM (TTK): 2%
- inhibition at 1 µM (RIPK1): 37%
- inhibition at 1 µM [1]: 0%
- inhibition at 1 µM (DDR2): 38%
- inhibition at 1 µM (PCTK1): 22%
- inhibition at 1 µM (PRKCQ): 16%
- inhibition at 1 µM (KIT(V559D)): 0%
- inhibition at 1 µM (ASK2): 0%
- inhibition at 1 µM (PIM1): 2%
- inhibition at 1 µM (FLT3(N841I)): 0%
- inhibition at 1 µM (DAPK2): 0%
- inhibition at 1 µM (CSNK2A1): 18%
- inhibition at 1 µM (PCTK2): 0%
- inhibition at 1 µM (WNK2): 14%
- inhibition at 1 µM (LYN): 0%
- inhibition at 1 µM (ALK(L1196M)): 12%
- inhibition at 1 µM (EGFR(E746-A750del)): 31%
- inhibition at 1 µM (FGFR3): 1%
- inhibition at 1 µM (GRK3): 32%
- inhibition at 1 µM (PLK3): 8%
